From PMC5679629, “Flavin-containing monooxygenase 3 (FMO3) role in busulphan metabolic pathway” (PLoS ONE, 2017) come the findings set out here.

SMILES strings stand for the structures.

What all share (assay): THT disappearance with recombinant cDNA-expressed enzyme microsomes
Type in all cases: in vitro ADME

One data set concerns the target T1, CYP1A2 (Homo sapiens, UniProt P05177).
T1 construct: purchased BD Biosciences; host or cells: baculovirus infected insect cells
T1 sequence (P05177 1-516): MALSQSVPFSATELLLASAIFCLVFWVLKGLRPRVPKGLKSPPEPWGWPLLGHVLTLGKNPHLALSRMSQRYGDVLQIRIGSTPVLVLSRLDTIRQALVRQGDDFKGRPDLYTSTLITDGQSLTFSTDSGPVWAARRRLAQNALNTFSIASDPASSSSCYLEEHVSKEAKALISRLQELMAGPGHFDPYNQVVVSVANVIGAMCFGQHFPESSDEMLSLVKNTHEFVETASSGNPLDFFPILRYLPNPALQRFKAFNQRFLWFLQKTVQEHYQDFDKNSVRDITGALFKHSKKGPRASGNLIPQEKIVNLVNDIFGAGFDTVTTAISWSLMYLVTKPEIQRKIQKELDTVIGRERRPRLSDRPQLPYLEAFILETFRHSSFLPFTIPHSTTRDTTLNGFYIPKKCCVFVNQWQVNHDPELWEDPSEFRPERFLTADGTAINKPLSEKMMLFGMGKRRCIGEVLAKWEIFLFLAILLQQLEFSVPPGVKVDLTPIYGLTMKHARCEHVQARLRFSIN
The note with it: 25μM THT, 35pmol CYP/mL. As to the method:
(§1) To identify the enzymes involved in Bu metabolism, 11 microsomal batches (BD Biosciences, Stockholm, Sweden), each containing a separate cDNA-expressed enzyme, were incubated with 25μM THT. The microsomes contained FMO3, CYP1A1, CYP1A2, CYP2B6, CYP2C8, CYP2C9, CYP2C19, CYP2D6, CYP2E1, CYP3A4 or CYP4A11. Time curves (0, 5, 15, 30 and 60min) were performed at a concentration of 0.35mg protein /mL for FMO3 and 35pmol CYP/mL for the CYP enzymes. The recombinant enzymes were produced from human cDNA expressing each of them using baculovirus expression system. Baculovirus infected insect cells were used to prepare these microsomes.
(§2) Incubations were performed in triplicate and negative controls (excluding NADPH, microsomes, THT or by terminating the incubations before the addition of NADPH) were run in parallel.
(§3) To measure THT and the secondary metabolite, sulfolane, the reactions were terminated by adding dichloromethane. Samples (180μL) were added to 10μM nicotine (20μL, Merck, Hoherbrunn, Germany), used as an internal standard, before extraction. The matrix was extracted by liquid-liquid extraction with dichloromethane (equal volumes, 200μL) after 30 sec of high speed vortexing. After extraction and centrifugation at 16000 g for 10 min, the organic phase was transferred into GC-MS tubes. […] Samples (180μL) were added to 10 μM of 3-methylsulfolane (20μL, TCI, Tokyo, Japan), used as an internal standard. The matrix was lyophilized (< 1 mbar at 40°C under N2 stream) to dryness, the residue was dissolved in 10 μL water and 200 μL of ethyl acetate was added for extraction. Samples were vortexed for 30 sec at high speed and centrifuged at 16000 g for 10 min. The organic phase was transferred to GC-MS tubes.
(§4) Concentrations of THT and its metabolites were measured using GC-MS [18] after validation for use with microsomal incubations according to the international guidelines.

A further data set has as its target T2, CYP2B6 (Homo sapiens, UniProt P20813).
T2 construct: purchased BD Biosciences; host or cells: baculovirus infected insect cells
T2 sequence (P20813 1-491): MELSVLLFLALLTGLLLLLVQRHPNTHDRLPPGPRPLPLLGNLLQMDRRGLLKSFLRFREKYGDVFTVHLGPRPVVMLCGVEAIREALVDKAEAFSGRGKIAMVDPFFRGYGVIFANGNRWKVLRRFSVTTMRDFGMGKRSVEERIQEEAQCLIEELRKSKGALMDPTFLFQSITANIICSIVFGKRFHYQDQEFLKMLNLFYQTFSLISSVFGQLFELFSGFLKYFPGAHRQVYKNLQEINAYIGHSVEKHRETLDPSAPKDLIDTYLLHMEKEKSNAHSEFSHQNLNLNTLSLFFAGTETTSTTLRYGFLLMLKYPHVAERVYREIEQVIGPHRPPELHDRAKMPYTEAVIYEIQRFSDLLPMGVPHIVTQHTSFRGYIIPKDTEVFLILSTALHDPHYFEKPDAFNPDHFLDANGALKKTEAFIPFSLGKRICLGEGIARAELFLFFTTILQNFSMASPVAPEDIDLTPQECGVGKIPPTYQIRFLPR
The note with it: 25μM THT, 35pmol CYP/mL. Here is the method: as §1, §2, §3, §4

The target of another data set is T3, CYP2C8 (Homo sapiens, UniProt P10632).
T3 construct: purchased BD Biosciences; host or cells: baculovirus infected insect cells
T3 sequence (P10632 1-490): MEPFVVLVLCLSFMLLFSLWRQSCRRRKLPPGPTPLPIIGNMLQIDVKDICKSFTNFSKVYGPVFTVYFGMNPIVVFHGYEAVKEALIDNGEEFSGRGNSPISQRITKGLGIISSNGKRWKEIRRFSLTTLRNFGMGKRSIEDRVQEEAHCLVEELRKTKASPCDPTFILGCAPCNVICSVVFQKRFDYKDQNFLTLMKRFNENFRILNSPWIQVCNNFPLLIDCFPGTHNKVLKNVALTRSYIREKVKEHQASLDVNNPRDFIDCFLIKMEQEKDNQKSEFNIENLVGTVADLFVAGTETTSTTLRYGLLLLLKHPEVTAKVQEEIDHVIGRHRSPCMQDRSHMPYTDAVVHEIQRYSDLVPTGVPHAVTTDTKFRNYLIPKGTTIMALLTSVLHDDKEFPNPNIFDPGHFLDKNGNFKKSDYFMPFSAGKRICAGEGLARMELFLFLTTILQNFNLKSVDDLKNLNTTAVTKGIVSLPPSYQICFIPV
The note with it: 25μM THT, 35pmol CYP/mL. As to the method: as §1, §2, §3, §4

In a further data set the target is T4, FMO3 (Homo sapiens, UniProt P31513).
T4 construct: purchased BD Biosciences; host or cells: baculovirus infected insect cells
T4 sequence (P31513 1-532): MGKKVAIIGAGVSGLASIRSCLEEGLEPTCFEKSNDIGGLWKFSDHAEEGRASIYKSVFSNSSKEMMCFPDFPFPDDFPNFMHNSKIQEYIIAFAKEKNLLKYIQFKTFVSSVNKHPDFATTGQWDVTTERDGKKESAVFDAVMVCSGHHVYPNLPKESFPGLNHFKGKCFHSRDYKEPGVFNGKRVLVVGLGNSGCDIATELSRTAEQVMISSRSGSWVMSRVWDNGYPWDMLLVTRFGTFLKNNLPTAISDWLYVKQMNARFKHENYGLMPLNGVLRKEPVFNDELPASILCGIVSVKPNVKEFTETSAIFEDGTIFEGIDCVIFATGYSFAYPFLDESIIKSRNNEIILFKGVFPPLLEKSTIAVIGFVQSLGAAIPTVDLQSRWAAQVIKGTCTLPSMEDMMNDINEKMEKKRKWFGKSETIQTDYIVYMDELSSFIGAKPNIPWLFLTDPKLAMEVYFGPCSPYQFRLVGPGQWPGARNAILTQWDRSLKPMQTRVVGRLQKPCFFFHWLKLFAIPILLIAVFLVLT
Conditions: 25μM THT, 0.35mg protein/mL. As to the method:
as §1, §2, §3, §4

For the compound `C1CCSC1` [THT, tetrahydrothiophene], the v0 at CYP1A2 turned out to be 1.24 nmol/min/mL; on CYP2B6, 1.76 nmol/min/mL; on CYP2C8 it was 2.45 nmol/min/mL; at FMO3 (FMO3), 6.87 nmol/min/mL. The v0/CYP was determined as 0.04 nmol/min/pmol CYP at CYP1A2, 0.05 nmol/min/pmol CYP on CYP2B6 and 0.07 nmol/min/pmol CYP on CYP2C8. For the same compound, the “THT disappeared (metabolized) by recombinant FMO3” value at FMO3 (within 15min) is given as 96%. Moreover, the CLint value on FMO3 (FMO3) was 709.14 μL/min/mg protein.
